Measured values from patent US20200157135A1, “SIDE-CHAIN MODIFIED ERGOSTEROL AND STIGMASTEROL DERIVATIVES AS LIVER X RECEPTOR MODULATORS” (Ospedale San Raffaele srl, priority 2017, published 2020).
Entries after “also recorded” stand apart in the source; their conditions may differ. Read-outs that look alike come from different tables or passages of the source.

How the values were obtained:
hLXRα = target: T1, hLXRα (Homo sapiens, UniProt Q13133); assay: luciferase assay with GAL-4 chimeric hLXRα receptor in human embryonic kidney 293 cells; format: cell-based; conditions: for EC50: GAL4-hLXRα luciferase, HEK293, dose-response 32-1 μM, mean of three-five independent experiments, read-out: LXRα EC50 (μM) ± SD; for Emax: HEK293, 24 h, read-out: LXRα Efficacy (%) ± SD; for LXR isoform selectivity profile: LXRα versus LXRβ, GAL4 luciferase assays
T1 sequence (Q13133 209-447 limits assumed): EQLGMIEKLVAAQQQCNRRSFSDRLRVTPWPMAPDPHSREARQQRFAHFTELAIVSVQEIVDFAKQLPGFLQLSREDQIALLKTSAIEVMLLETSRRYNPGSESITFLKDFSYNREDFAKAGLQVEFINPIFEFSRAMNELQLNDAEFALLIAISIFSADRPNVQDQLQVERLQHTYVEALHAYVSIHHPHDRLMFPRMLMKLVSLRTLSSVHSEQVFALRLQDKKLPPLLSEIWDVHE
Description: (§1) All the synthesized compounds were first tested for their ability to activate LXRs by using luciferase assays with GAL-4 chimeric receptors. These were performed by co-transfecting plasmids encoding hLXRα- and β-binding domains fused to GAL-4, with the respective responsive element conjugated with the luciferase reporter gene into the human embryonic kidney 293 cells.
(§2) Cell Culture and Co-transfection Assays. Human embryonic Kidney 293 cells (American Type Culture Collection) were cultured in Dulbecco's Modified Eagle's medium containing 10% of fetal bovine serum at 37° C. in humidified atmosphere of 5% CO2. HEK293 cells (4×10^4 cells per well) were transiently transfected in 48 well plate with the reporter plasmids pMH100X4-TK-luc (100 ng/well), Renilla (22 ng/well) together with 100 ng/well of pCMX-Gal4-RXR, pCMX-Gal4-PPAR-γ, pCMX-Gal4-PXR, pFA-CMV-FXR pCMX-Gal4-LXR-α or pCMX-Gal4-LXR-β plasmids using X-tremeGENE 9 DNA Transfection Reagent (Roche). Six hours after transfection, the cells were treated with the appropriate compound for 24 hours. Luciferase activities were analyzed by luciferase Dual Reporter Assay Systems (Promega) according to the manufacturer's protocol. GAL4-LXRs, GAL4-PPAR-γ, GAL4-RXR and TK-MHC100-luc plasmids were described in Villablanca et al.49 GAL4-PXR was a kind gift of Dr. Enrique Sainz (The Scripps Research Institute, La Jolla, USA). GAL4-FXR was a kind gift of Dr. Daniel Merk (Goethe-University Frankfurt am Main). The results obtained by luciferase assays and reported in Table 1 are from three to five independent experiments.
(§3) Statistical analysis. Data are expressed as mean±SEM and were analyzed for significance by ANOVA with Dunnet's multiple comparison tests. The analysis was performed with Prism software. Data in Table 1 are expressed as EC50±SD. In particular, the standard deviations were obtained by calculating the mean of the EC50 of each experiment (three to five independent experiments). The efficacy (%) of the compounds was calculated as the percentage of the compound effect, in terms of LXRα or β activation, versus 8 μM of 22R—HC±SD. The analyses were performed with Prism software.

hLXRβ = target: T2, hLXRβ (Homo sapiens, UniProt P55055); assay: luciferase assay with GAL-4 chimeric hLXRβ receptor in human embryonic kidney 293 cells; format: cell-based; conditions: for EC50: GAL4-hLXRβ luciferase, HEK293, dose-response 32-1 μM, mean of three-five independent experiments, read-out: LXRβ EC50 (μM) ± SD; for Emax: HEK293, 24 h
T2 sequence (P55055 222-460 limits assumed): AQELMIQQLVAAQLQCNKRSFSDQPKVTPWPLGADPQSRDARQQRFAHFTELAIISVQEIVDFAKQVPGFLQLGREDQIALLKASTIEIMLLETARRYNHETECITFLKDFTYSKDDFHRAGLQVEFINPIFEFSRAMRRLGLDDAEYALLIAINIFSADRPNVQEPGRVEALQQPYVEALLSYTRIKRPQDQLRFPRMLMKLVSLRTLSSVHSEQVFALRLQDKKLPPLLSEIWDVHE
Description: as §1, §2, §3

ABCA1 [1] = assay: qPCR of ABCA1 expression in PMA-differentiated U937 cells; format: cell-based, human; conditions: U937 differentiated with PMA 72 h; 10 μM, 6 hours
Description: (§4) U937 cells differentiated with PMA for 72 hours were treated with T0901317 (10 μM), 22R—HC (3) or with the tested compound (10 μM). […] (n=3/group). *p<0.05, **p<0.01, ***p<0.001.
(§5) LXR agonists induce the expression of target genes, which are involved in cholesterol homeostasis, particularly in the reverse cholesterol transport pathway.43 Indeed, LXR agonists induce the expression of ABCA1 both in macrophages and in many tissues of the periphery such as the intestine.44 Moreover, ABCA1 regulates cholesterol efflux to APOAI acceptors.45 In the liver, LXR activation promotes the biosynthesis of fatty acids, a process also termed as de novo lipogenesis by inducing the expression of the master regulator of hepatic lipogenesis sterol-regulatory element-binding protein 1C (SREBP-1c), as well as several downstream genes in the SREBP-1c pathway, including steroyl CoA desaturase 1 (SCD1) and fatty acid synthase (FASN).43 Therefore, it was investigated, by quantitative PCR (qPCR), the expression of ABCA1, SREBP1c, FASN, and SCD1, by using RNA from monocytic U937 cells (FIG. 3) and from hepatic HepG2 cells (FIG. 4) stimulated with our compounds, the non-steroidal agonist T0901317 or the endogenous ligand 22R—HC (3) as positive controls. […] Then, the induction of genes involved in the lipogenesis using the hepatic cell line HepG2. 43,22 was evaluated. […] Over the time, indeed, substantial efforts have been dedicated to the identification of LXR ligands able to turning on ABC transporter genes, without affecting lipogenic genes levels. This task is still one of the major challenge to the discovery of a clinically useful LXR modulator for atherosclerosis.
(§6) Quantitative Real-Time-PCR. U937 cell line was differentiated in foam macrophages with phorbol 12-myristate 13-acetate (PMA) 10 ng/ml (Sigma) for 72 hours at 37° C. in […] at the concentration of 3×10^6 cells in 10 ml RPMI 10% FBS. At day 3 nuclear receptor ligands were added for 6 hours. HepG2 cells were treated with the ligands as described by Quinet et al.22 Total RNA was purified by TRIZOL (Invitrogen, Carlsbad, Calif., USA). Reverse transcription was performed incubating 2 μg of total RNA 1 hour at 42° C. with MLV-reverse transcriptase (Promega). Quantitative PCR was performed using Sybr Green Master Mix (Applied Biosystems) and real-time PCR (Viia 7 Real Time PCR System, Applied Biosystems). All PCR reactions were done in triplicate. The comparative Ct method was used to quantify transcripts that were normalized for human GAPDH. the following primer pairs were used: […]

SREBP1c [2] = assay: qPCR of SREBP1c expression in PMA-differentiated U937 cells; format: cell-based, human; conditions: U937 differentiated with PMA 72 h; 10 μM, 6 hours
Description: as §4, §5, §6

SCD1 = assay: qPCR of SCD1 expression in PMA-differentiated U937 cells; format: cell-based, human; conditions: U937 differentiated with PMA 72 h; 10 μM, 6 hours
Description: as §4, §5, §6

SREBP1c [3] = assay: qPCR of SREBP1c expression in HepG2 cells; format: cell-based, human; conditions: 10 μM
Description: HepG2 cells were treated with T0901317 (10 μM), 22R—HC (3) (10 μM) or with the tested compound (10 μM). […] (n=3/group). *p<0.05, **p<0.01, ***p<0.001.
LXR agonists induce the expression of target genes, which are involved in cholesterol homeostasis, particularly in the reverse cholesterol transport pathway.43 Indeed, LXR agonists induce the expression of ABCA1 both in macrophages and in many tissues of the periphery such as the intestine.44 Moreover, ABCA1 regulates cholesterol efflux to APOAI acceptors.45 In the liver, LXR activation promotes the biosynthesis of fatty acids, a process also termed as de novo lipogenesis by inducing the expression of the master regulator of hepatic lipogenesis sterol-regulatory element-binding protein 1C (SREBP-1c), as well as several downstream genes in the SREBP-1c pathway, including steroyl CoA desaturase 1 (SCD1) and fatty acid synthase (FASN).43 Therefore, it was investigated, by quantitative PCR (qPCR), the expression of ABCA1, SREBP1c, FASN, and SCD1, by using RNA from monocytic U937 cells (FIG. 3) and from hepatic HepG2 cells (FIG. 4) stimulated with our compounds, the non-steroidal agonist T0901317 or the endogenous ligand 22R—HC (3) as positive controls. […] 43,22 was evaluated. […]
Quantitative Real-Time-PCR. […] The comparative Ct method was used to quantify transcripts that were normalized for human GAPDH. the following primer pairs were used: […]

TNFα = assay: qPCR of TNFα expression in differentiated U937 cells treated with LPS; format: cell-based, human; conditions: differentiated U937, 6 hours, 10 μM in combination with LPS (100 ng/ml)
Description: (§7) U937 cells differentiated with PMA for 72 hours were treated with LPS (100 ng/ml) in combination with T0901317 (10 μM) or with the title compounds (10 μM). […] (n=3/group). *p<0.05, **p<0.01, ***p<0.001.
as §6

[4] = system: murine Lewis lung carcinoma cells (LLC); assay: growth of LLC tumor cells in vitro; format: cell-based; conditions: 96 hours, 10 μM
From the text: (§8) We have performed a set of experiments to evaluate whether some LXR modulators, particularly PFM009 (13) and PFM018 (25) influence the growth of the murine Lewis lung carcinoma cells (LLC) in vitro and in vivo.

Abca1 [5] = assay: qPCR of LXR target gene Abca1 in LLC tumor cells; format: cell-based, murine
From the text: as §8

LLC tumor = LLC tumor growth in vivo in C57BL/6 mice; conditions: 1×10^6 LLC cells subcutaneously, 30 mg/Kg/day for five consecutive days from day six
Description: Then, we tested whether these compounds could influence LLC tumor growth in vivo. To do that, C57BL/6 mice were challenged with 1×10^6 LLC tumor cells subcutaneously. Six days later, tumor-bearing mice were treated with PFM009 or PFM018 (30 mg/Kg/day) for five consecutive days and then evaluated for tumor growth.

MCP-1/CCL2 = assay: qPCR of CCL2 expression in differentiated U937 cells treated with LPS; format: cell-based, human; conditions: differentiated U937, 6 hours, 10 μM in combination with LPS (100 ng/ml)
Description: as §7, §6

[6] = read-out: LXRβ Efficacy (%) ± SD, % of compound effect versus 8 μM of 22R-HC
[7] = % of compound effect versus 8 μM of 22R-HC

Row | Compound | melting point [°C] | EC50 (hLXRα) [µM] | Emax (hLXRα) [%] | LXR isoform selectivity profile (hLXRα) | EC50 (hLXRβ) [µM] | Emax (hLXRβ; [6]) [%] | ABCA1 expression (ABCA1 [1]) | SREBP-1c up-regulation (SREBP1c [2]) | SCD1 expression (SCD1) | SREBP-1c up-regulation (SREBP1c [3]) | inhibition of TNFα expression (TNFα) | LLC tumor growth in vitro [4] | expression of the LXR target gene Abca1 (Abca1 [5]) | LLC tumor growth in vivo (LLC tumor) | Emax (hLXRα; [7]) [%] | Emax (hLXRβ; % of compound effect versus 8 μM of 22R-HC, read-out: LXRβ Efficacy (%) ± SD) [%] | inhibition of CCL2 expression (MCP-1/CCL2) | LXRα Efficacy (%) ± SD (hLXRα; [7]) | beta/alfa efficacy ratio (hLXRβ; LXRβ efficacy over LXRα efficacy)
1 | CC(C)[C@@H](C)C[C@@H](O)[C@@H](C)[C@H]1CC[C@H]2C3=CC=C4C[C@@H](O)CC[C@]4(C)[C@H]3CC[C@]12C | 117.3 to 121 | – | – | – | – | – | – | – | – | – | – | – | – | – | – | – | – | – | –
2 | CC[C@@H](C(C)C)[C@H]1O[C@@H]1[C@@H](C)[C@H]1CC[C@H]2[C@@H]3CC=C4C[C@@H](O)CC[C@]4(C)[C@H]3CC[C@]12C [Compound 13, (22R,23R)-22,23-Epoxystigmast-5-ene-3β-ol] | – | 2.09 ± 0.57 | 489 ± 89.1 | non-selective and poorly preferential LXRα agonists; also recorded: non-selective ligands; also recorded: non-selective LXR agonists | 3.79 ± 0.82 | 142 ± 16.8 | strong induction of ABCA1 expression | poor activators of SREBP1c and SCD1 | poor activators of SREBP1c and SCD1 | significant up-regulation of SREBP-1c | the most active | not able to alter LLC tumor growth in vitro | induced the expression of the LXR target gene Abca1 | significant control of LLC tumor growth | – | – | – | – | –
3 | CC(C)[C@@H](C)[C@@H]1O[C@H]1[C@@H](C)[C@H]1CC[C@H]2C3=CC=C4C[C@@H](O)CC[C@]4(C)[C@H]3CC[C@]12C [Compound 16, (22S,23S)-22,23-Epoxyergosta-5,7-diene-3β-ol] | – | 1.5 ± 0.12 | – | non-selective and poorly preferential LXRα agonists | 1.96 ± 0.05 | – | – | – | – | significant up-regulation of SREBP-1c | – | – | – | – | 51.7 ± 3.8 | 48.5 ± 13 | same grade of potency of the positive control T0901317 | – | –
4 | CC[C@H](C(=O)C[C@@H](C)[C@H]1CC[C@H]2[C@@H]3CC=C4C[C@@H](O)CC[C@]4(C)[C@H]3CC[C@]12C)C(C)C [Compound 25, 3β-Hydroxystigmast-5-ene-23-one] | – | 14.5 | 12.4 ± 4.2 | good selectivity for the LXRβ isoform in terms of EC50; also recorded: LXRβ-selective agonist; also recorded: selective LXRβ agonist | 6.02 ± 1.2 | ~50 | strong induction of ABCA1 expression | poor activators of SREBP1c and SCD1 | poor activators of SREBP1c and SCD1 | – | the most active | not able to alter LLC tumor growth in vitro | induced the expression of the LXR target gene Abca1 | significant control of LLC tumor growth | – | – | – | lowest efficacy at LXRα | 3.7
